In article PMC4685510, “A Cell Biologist’s Field Guide to Aurora Kinase Inhibitors” (Frontiers in Oncology, 2015):
Where “and” joins values, the source holds several entries; their conditions need not be identical. Identical values can stand only once. Like-named read-outs stand apart in the source and are kept apart here.

Assays:
Test in all cases: biochemical
Assay type in all cases: biochemical
[1] = target: T1, 363 human kinases (including Aurora A/B/C) (Homo sapiens, UniProt O00444); settings: PLK4/SAK; for remaining activity at 0.1 µM: 100 nM; for remaining activity at 0.1 µM / remaining activity at 0.5 µM: read-out: % Enzyme Activity (relative to DMSO controls)
T1 sequence (O00444 1-970): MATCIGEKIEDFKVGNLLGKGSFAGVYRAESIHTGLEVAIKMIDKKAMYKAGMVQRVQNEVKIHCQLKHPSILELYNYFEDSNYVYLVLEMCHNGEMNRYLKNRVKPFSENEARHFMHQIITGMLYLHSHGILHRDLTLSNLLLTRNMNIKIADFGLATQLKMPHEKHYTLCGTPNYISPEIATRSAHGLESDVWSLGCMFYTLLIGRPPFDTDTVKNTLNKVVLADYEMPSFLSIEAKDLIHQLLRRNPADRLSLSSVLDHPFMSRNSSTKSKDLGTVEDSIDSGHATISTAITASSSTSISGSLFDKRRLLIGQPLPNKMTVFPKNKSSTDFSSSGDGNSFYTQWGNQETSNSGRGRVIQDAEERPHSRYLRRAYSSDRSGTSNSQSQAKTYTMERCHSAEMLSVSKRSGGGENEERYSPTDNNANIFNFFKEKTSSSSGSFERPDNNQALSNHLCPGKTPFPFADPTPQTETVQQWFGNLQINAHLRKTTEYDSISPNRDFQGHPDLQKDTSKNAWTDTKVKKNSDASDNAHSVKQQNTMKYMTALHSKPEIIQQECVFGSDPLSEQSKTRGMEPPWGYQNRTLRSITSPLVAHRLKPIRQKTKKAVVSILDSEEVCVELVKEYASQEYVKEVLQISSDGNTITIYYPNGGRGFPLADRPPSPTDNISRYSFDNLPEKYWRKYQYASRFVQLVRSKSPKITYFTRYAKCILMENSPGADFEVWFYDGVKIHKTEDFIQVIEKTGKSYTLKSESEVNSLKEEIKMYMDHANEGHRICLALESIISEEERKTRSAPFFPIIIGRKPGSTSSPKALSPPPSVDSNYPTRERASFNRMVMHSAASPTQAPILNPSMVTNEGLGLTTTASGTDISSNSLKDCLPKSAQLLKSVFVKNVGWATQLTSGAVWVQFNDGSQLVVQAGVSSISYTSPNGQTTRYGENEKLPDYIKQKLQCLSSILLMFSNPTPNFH
Excerpt: (§1) However, the Aurora A/B selectivity ratios derived from our in vitro and in vivo data can be compared to prioritize inhibitors.

[2] = target: 363 human kinases (including Aurora A/B/C) (Homo sapiens, UniProt P06239); settings: LCK; for remaining activity at 0.1 µM: 100 nM; for remaining activity at 0.1 µM / remaining activity at 0.5 µM: read-out: % Enzyme Activity (relative to DMSO controls)
363 human kinases (including Aurora A/B/C) (Homo sapiens, UniProt P06239), sequence (P06239 whole entry): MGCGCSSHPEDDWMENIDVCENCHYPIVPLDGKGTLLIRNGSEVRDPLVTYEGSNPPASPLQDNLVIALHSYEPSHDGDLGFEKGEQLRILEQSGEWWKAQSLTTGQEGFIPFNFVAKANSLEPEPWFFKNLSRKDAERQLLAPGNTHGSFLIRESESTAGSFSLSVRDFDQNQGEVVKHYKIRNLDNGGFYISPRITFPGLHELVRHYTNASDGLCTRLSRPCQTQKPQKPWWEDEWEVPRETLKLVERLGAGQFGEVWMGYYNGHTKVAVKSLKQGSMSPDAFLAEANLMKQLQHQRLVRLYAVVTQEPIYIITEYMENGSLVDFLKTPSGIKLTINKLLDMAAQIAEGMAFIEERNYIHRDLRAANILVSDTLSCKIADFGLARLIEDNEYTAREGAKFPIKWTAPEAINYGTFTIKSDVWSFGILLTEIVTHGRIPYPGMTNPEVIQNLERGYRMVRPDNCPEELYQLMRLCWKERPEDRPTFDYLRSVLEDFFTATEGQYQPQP
Excerpt: as §1

[3] = target: 363 human kinases (including Aurora A/B/C) (Homo sapiens, UniProt P35968); settings: KDR/VEGFR2; for remaining activity at 0.1 µM: 100 nM; for remaining activity at 0.1 µM / remaining activity at 0.5 µM: read-out: % Enzyme Activity (relative to DMSO controls)
363 human kinases (including Aurora A/B/C) (Homo sapiens, UniProt P35968), sequence (P35968 20-1356): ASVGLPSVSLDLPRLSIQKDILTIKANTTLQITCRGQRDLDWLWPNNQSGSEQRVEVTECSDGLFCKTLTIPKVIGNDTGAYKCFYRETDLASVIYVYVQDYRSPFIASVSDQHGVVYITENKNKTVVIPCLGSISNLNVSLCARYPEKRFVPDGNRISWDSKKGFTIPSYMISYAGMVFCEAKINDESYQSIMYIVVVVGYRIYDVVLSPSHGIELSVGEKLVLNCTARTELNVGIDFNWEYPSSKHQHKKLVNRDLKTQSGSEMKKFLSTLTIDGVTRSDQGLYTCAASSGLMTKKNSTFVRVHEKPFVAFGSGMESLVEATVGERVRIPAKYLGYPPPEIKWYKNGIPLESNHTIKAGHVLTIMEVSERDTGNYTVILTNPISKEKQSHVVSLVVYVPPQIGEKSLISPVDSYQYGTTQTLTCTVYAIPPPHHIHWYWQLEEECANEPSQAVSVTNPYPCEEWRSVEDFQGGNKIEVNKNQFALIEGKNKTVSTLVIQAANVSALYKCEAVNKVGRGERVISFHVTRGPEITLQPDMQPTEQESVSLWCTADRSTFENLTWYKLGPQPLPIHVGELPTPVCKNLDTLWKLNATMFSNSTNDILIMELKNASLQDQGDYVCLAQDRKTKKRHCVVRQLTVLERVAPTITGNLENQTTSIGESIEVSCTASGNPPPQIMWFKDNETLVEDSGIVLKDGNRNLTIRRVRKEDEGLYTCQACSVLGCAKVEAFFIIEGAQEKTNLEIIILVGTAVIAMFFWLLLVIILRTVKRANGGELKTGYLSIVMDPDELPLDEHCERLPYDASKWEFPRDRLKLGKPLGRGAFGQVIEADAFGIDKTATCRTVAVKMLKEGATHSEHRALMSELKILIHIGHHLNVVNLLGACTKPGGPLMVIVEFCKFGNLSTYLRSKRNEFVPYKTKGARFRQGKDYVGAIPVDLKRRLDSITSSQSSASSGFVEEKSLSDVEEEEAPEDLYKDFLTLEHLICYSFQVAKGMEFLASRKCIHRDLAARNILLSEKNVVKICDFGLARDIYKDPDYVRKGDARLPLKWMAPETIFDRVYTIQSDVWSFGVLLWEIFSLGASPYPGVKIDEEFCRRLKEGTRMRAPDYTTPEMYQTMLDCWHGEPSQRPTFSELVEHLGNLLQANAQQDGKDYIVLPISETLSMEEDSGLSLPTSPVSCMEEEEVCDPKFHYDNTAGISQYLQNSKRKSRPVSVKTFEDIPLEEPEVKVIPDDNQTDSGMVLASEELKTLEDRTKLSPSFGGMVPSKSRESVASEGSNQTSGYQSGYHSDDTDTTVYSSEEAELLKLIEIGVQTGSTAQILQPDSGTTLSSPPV
Excerpt: as §1

[4] = target: 363 human kinases (including Aurora A/B/C) (Homo sapiens, UniProt P51812); settings: RSK2; for remaining activity at 0.1 µM: 100 nM; for remaining activity at 0.1 µM / remaining activity at 0.5 µM: read-out: % Enzyme Activity (relative to DMSO controls)
363 human kinases (including Aurora A/B/C) (Homo sapiens, UniProt P51812), sequence (P51812 whole entry): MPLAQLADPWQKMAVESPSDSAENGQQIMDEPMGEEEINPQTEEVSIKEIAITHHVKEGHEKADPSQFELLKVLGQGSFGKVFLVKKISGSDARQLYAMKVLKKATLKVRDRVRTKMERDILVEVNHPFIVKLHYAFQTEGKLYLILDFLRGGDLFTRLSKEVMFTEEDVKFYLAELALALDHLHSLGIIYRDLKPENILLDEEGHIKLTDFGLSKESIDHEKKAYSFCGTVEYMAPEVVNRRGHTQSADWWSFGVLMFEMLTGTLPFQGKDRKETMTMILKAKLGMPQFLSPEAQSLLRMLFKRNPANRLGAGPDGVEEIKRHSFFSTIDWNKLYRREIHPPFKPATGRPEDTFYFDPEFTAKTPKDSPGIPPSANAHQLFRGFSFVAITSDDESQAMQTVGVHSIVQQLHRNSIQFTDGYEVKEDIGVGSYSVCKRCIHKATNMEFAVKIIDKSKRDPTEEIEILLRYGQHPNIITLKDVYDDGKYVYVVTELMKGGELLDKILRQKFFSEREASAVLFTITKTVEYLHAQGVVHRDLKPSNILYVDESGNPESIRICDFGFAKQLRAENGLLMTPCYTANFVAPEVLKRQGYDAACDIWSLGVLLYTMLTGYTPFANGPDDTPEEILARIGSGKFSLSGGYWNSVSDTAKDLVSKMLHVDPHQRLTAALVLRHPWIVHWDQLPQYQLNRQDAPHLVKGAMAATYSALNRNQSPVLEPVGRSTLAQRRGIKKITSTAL
Excerpt: as §1

[5] = target: T2, 363 human kinases (including Aurora A/B/C) (Homo sapiens, UniProt P51956); settings: NEK3; for remaining activity at 0.1 µM: 100 nM; for remaining activity at 0.1 µM / remaining activity at 0.5 µM: read-out: % Enzyme Activity (relative to DMSO controls)
T2 sequence (P51956 1-506): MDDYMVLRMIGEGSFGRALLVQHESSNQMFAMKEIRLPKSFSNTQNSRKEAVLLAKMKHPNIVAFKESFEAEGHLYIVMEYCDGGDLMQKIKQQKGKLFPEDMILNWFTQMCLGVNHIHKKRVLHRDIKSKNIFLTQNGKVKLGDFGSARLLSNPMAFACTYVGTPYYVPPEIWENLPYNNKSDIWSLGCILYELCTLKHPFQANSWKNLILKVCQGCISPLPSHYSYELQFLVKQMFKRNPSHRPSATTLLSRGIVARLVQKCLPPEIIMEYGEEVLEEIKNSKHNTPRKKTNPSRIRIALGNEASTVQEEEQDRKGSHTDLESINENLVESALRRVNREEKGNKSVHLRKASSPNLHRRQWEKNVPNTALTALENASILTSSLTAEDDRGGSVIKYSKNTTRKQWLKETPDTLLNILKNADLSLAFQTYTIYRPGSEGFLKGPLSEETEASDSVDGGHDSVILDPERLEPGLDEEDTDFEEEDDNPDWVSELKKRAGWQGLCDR
Excerpt: as §1

[6] = target: 363 human kinases (including Aurora A/B/C) (Homo sapiens, UniProt Q13554); settings: CAMK2b, [ATP] 100 µM; for remaining activity at 0.1 µM: 100 nM; for remaining activity at 0.1 µM / remaining activity at 0.5 µM: read-out: % Enzyme Activity (relative to DMSO controls)
363 human kinases (including Aurora A/B/C) (Homo sapiens, UniProt Q13554), sequence (Q13554 whole entry): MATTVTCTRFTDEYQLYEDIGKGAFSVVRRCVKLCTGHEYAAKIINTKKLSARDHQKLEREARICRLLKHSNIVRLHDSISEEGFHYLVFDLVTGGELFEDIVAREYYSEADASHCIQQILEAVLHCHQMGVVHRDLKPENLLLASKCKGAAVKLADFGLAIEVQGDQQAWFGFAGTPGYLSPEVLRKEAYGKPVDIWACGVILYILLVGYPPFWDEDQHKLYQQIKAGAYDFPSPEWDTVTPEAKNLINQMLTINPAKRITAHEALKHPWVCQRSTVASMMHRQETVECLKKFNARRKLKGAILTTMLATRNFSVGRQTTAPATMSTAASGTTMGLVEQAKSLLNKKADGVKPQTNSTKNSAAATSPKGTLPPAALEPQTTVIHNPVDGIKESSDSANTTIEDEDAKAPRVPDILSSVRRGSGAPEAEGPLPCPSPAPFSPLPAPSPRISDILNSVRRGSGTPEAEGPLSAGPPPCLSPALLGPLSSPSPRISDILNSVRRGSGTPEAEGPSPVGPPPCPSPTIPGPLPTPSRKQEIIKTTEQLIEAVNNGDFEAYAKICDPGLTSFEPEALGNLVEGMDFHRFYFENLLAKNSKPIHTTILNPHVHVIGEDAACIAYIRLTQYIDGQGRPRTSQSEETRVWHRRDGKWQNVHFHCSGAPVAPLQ
Excerpt: as §1

[7] = target: T3, 363 human kinases (including Aurora A/B/C) (Homo sapiens, UniProt Q32MK0); settings: MYLK3; for remaining activity at 0.1 µM: 100 nM; for remaining activity at 0.1 µM / remaining activity at 0.5 µM: read-out: % Enzyme Activity (relative to DMSO controls)
T3 sequence (Q32MK0 1-819): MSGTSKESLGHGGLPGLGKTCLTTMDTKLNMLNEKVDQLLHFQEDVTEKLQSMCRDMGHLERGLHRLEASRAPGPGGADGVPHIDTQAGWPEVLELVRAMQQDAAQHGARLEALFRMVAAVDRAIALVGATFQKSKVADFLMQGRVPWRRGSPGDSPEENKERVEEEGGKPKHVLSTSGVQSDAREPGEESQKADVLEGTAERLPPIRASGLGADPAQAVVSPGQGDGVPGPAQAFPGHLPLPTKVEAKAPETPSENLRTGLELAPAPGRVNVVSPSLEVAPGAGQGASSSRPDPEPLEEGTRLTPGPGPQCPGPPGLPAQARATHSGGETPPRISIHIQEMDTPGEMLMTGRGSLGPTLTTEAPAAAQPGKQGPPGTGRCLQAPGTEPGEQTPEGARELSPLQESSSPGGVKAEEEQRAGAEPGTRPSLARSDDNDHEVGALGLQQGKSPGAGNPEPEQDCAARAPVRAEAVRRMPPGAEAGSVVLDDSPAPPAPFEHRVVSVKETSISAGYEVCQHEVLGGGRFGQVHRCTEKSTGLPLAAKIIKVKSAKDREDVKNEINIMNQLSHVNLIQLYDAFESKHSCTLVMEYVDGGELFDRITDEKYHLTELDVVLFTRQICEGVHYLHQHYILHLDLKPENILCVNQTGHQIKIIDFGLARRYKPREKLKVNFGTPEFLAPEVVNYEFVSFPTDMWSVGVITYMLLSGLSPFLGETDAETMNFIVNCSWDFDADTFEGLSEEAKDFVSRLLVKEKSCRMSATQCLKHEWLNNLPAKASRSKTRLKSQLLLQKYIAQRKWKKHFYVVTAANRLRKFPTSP
Excerpt: as §1

[8] = target: 363 human kinases (including Aurora A/B/C) (Homo sapiens, UniProt Q9P289); settings: MST4; for remaining activity at 0.1 µM: 100 nM; for remaining activity at 0.1 µM / remaining activity at 0.5 µM: read-out: % Enzyme Activity (relative to DMSO controls)
363 human kinases (including Aurora A/B/C) (Homo sapiens, UniProt Q9P289), sequence (Q9P289 whole entry): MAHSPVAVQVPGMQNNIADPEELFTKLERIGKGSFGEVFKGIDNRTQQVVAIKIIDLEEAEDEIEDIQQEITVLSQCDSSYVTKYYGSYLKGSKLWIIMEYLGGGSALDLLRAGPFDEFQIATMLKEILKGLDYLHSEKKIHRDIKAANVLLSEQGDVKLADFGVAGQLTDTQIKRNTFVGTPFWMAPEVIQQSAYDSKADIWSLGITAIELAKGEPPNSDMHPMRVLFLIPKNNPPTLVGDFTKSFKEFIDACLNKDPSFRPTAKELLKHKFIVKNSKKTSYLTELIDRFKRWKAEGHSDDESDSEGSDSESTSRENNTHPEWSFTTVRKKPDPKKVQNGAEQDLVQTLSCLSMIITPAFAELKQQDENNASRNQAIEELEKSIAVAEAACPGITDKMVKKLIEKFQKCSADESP
Excerpt: as §1

[9] = test system: 363 human kinases (including Aurora A/B/C)
Excerpt: as §1

| SMILES | remaining activity at 0.1 µM [1] [%] | remaining activity at 0.1 µM [2] [%] | remaining activity at 0.1 µM [3] [%] | remaining activity at 0.1 µM [4] [%] | remaining activity at 0.1 µM [5] [%] | remaining activity at 0.1 µM [6] [%] | remaining activity at 0.1 µM [7] [%] | remaining activity at 0.1 µM [8] [%] | remaining activity at 0.5 µM ([1]; 500 nM) [%] | remaining activity at 0.5 µM ([2]; 500 nM) [%] | remaining activity at 0.5 µM ([3]; 500 nM) [%] | remaining activity at 0.5 µM ([4]; 500 nM) [%] | remaining activity at 0.5 µM ([5]; 500 nM) [%] | remaining activity at 0.5 µM ([6]; 500 nM) [%] | remaining activity at 0.5 µM ([7]; 500 nM) [%] | remaining activity at 0.5 µM ([8]; 500 nM) [%] | also measured |
| --- | --- | --- | --- | --- | --- | --- | --- | --- | --- | --- | --- | --- | --- | --- | --- | --- | --- |
| CCn1cc(-c2ccnc3[nH]c(-c4cccc(CN(C)C)c4)cc23)c(-c2ccc(NC(=O)N(C)C)cc2)n1 [GSK1070916] | 115 | 72.8 | 87.5 | 107 | 97.7 | 101 | 102 | 76.4 |  |  |  |  |  |  |  |  | Kinases inhibited ≥65% of control ([9]; 100 nM, 363 human kinases, [ATP] ~ Km(ATP)): Aurora A and B as well as DDR1 |
| O=C(O)[C@]1(Cc2cccc(Nc3nccs3)n2)CC[C@@H](Oc2cccc(Cl)c2F)CC1 [MK-5108] | 21.9 | 62.3 | 36.8 | 101 | 99.3 | 95.5 | 97.3 | 84 | 9.25 | 16.6 | 13.1 | 99.5 | 101 | 97.8 | 99.7 | 81.5 | Number of kinases inhibited at >65% of control [9]: 75 kinases; Number of kinases inhibited at >65% of control (including the Aurora kinases) [9]: 32 kinases |
| O=C(c1cccc(Cl)c1F)N1CCN(Cc2cccc(Nc3nccs3)n2)CC1 [MK-8745] |  |  |  |  |  |  |  |  | 71.4 | 53 | 96.7 | 105 | 100 | 101 | 103 | 87.2 | % Enzyme Activity (relative to DMSO controls) ([1]; 500 nM): 70.47%; % Enzyme Activity (relative to DMSO controls) ([2]; 500 nM): 50.49%; % Enzyme Activity (relative to DMSO controls) ([3]; 500 nM): 96.11%; % Enzyme Activity (relative to DMSO controls) ([4]; 500 nM): 101.95%; % Enzyme Activity (relative to DMSO controls) ([5]; 500 nM): 99.14%; % Enzyme Activity (relative to DMSO controls) ([6]; 500 nM): 99.72%; % Enzyme Activity (relative to DMSO controls) ([7]; 500 nM): 102.40%; % Enzyme Activity (relative to DMSO controls) ([8]; 500 nM): 78.55%; Kinases inhibited at >65% of control ([9]; 500 nM): Aurora A, AXL, BRK, DDR1, EphA6, GSK3α/β, IRAK1, JNK1, LKB1, ROS1, Trk A/B/C, TYRO3, YES; Number of kinases inhibited at >65% of control ([9]; 500 nM): 16 kinases; % Enzyme Activity (relative to DMSO controls) ([9]; LYN B, 500 nM): 85.04% and 84.52%; % Enzyme Activity (relative to DMSO controls) ([9]; PKCb2, 500 nM): 98.11% and 97.15%; % Enzyme Activity (relative to DMSO controls) ([9]; PKG1b, 500 nM): 109.42% and 102.59% |
